Experimental data taken from patent US20140005260A1 (TRI-SERVICE GENERAL HOSPITAL, priority 2012, published 2014).

Tests used:
zebrafish embryos = assay: Whole mount in situ hybridization (WISH) of snail, versican and cdh5 in zebrafish embryos; assay type: in vivo
Method: EGFR inhibitor AG 1478 (CalBiochem) was dissolved in DMSO and stocked as 1 mM at -20° C. […] Before use, the solution was re-dissolved at 65° C. for 1 h. In the control group, 100 embryos were placed in a 9 cm dish filled with a volume of 30 ml embryo medium containing 0.2 mM 1-phenyl-2-thio-urea (Sigma). […] Long-term treatment during 12-72 hpf included the specification stage of valve formation at 36-55 hpf and the invagination stage of valve formation at 55 hpf. Treatment during 12-48 hpf was used to examine the gene markers versican and cdh5 which expressed at the AVC. […] During mouse embryonic valve formation, Snail (Snail) in Snail family acts as the […] of cdh5 that inhibit the transcription of cdh5. […] WISH was performed as previously described (Nucleic Acids Res 2010; 38:4384-93). Riboprobe of cdh5 was prepared by cloning its partial DNA fragment, while riboprobe of versican was provided by […] (Nature 2003; 425:633-7). […] FIG. 7H).

EGFR = EGFR signaling in zebrafish embryos (EGFR dimers, EGFR phosphorylation, GSK3β); assay type: in vivo
[1] = test system: zebrafish embryos Tg(cmlc2:HcRFP); assay: In vivo observation of cardiac valve development in zebrafish embryos by HGM/2PF
Method: The zebrafish AB strain, as well as transgenic lines Tg(cmlc2:HcRFP) and Tg(cmlc2:EGFP), were cultured as previously described. Heart formation was observed under fluorescent stereomicroscopy (MZ Leica). […] The excitation source was a femtosecond Cr:forsterite laser with an output wavelength of 1230 nm. Second harmonic generation (SHG) and third harmonic generation (THG; J Struct Biol. 2004 147: 19-30) were applied to observe valve development in transgenic zebrafish Tg(cmlc2:HcRFP) in vivo. RFP marked the myocardial cells, while THG (410 nm) marked all cells in yellow, and SHG (615 nm) marked the skeletal and cardiac muscles in green. Paraffin sectioning with Hematoxylin and Eosin (H&E) staining was also used to perform histochemical analysis of the heart.
EGFR inhibitor AG 1478 (CalBiochem) was dissolved in DMSO and stocked as 1 mM at −20° C. […] Before use, the solution was re-dissolved at 65° C. for 1 h. In the control group, 100 embryos were placed in a 9 cm dish filled with a volume of 30 ml embryo medium containing 0.2 mM 1-phenyl-2-thio-urea (Sigma). […] Long-term treatment during 12-72 hpf included the specification stage of valve formation at 36-55 hpf and the invagination stage of valve formation at 55 hpf. Treatment during 12-48 hpf was used to examine the gene markers versican and cdh5 which expressed at the AVC.
By using HGH/2 PF to examine the zebrafish embryos derived from transgenic line Tg(cmlc2:HcRFP), the dynamics of valve development in vivo could easily be observed. For example, at 48 hpf, there was a single layer of cells in the endocardium at the AVC (FIG. 1A). […] Finally, at 87 hpf, the elongated structure was protruding towards the ventricle (FIG. 1C).

S-vcanb = assay: Western blot of S-vcanb protein in zebrafish embryos; assay type: in vivo; conditions: treated embryos
B16OVA [2] = assay: MTT cell survival assay; assay type: cell-based, murine; conditions: 24 hr
Method: (§1) […]. Data is represented as a percentage of the DMSO control (DMSO), which is set to 100% and is expressed as mean±SEM (n=3).
(§2) It is well known that the Versican V1 increases EGFR signaling. […]. […]. Cells were plated at a density of 1×10^4 per well in 96-well plates and incubated for 12-16 h to allow cells to adhere. After 24 h, 0.5 mg/mL 3-(4,5-dimethylthiazol-2-yl)-2,5-diphenyltetrazolium bromide (MTT; Sigma) was added, and the cells were incubated for 4 h. Following incubation, each well was added 100 μl of 10% SDS/0.01N HCl solution and shaking for 5 min. Then, the absorbance was measured at 570 nm. Results were representative of three independent experiments, each done in quintuplicate. […].

JC cell = assay: MTT cell survival assay; assay type: cell-based, mouse; conditions: 24 hr
Method: as §1, §2

B16OVA [3] = assay: Versican V1, V2, Snail and E-cadherin protein level in treated cells; assay type: cell-based, murine; conditions: 15 μM for 24 hr
Source text: (§3) […]. […] […]. […] […].

4T-1 cells [4] = assay: as above; assay type: cell-based, mouse; conditions: 15 μM for 24 hr
Source text: as §3

JC [5] = assay: as above; assay type: cell-based, mouse; conditions: 15 μM for 24 hr
Source text: as §3

B16OVA cells = test system: B16OVA cells
Method: (§4) For wound healing assays, B16OVA, JC or 4T-1 cells (1×10^6) were seeded onto 6-well plates in DMEM/RPMI 1640 medium and maintained at 37° C. until they reached 95% confluence. The monolayer of cells was wounded by a sterile pipette tip to create a 1-mm cell-free path. Culture medium was removed and the samples were washed with PBS, followed by culturing in DMEM/RPMI 1640 medium with 10 μg/ml of the Mitomycin C. Cells were photographed under a low-magnification microscope. […] The distances between the wounding centre and the front of the migrating cells (vertical axis) were measured for statistical analysis. […] To determine cell migration in the absence of cell proliferation, Mitomycin C was used to block mitosis and thus allowed the analysis of cell migration in the absence of cell proliferation.

B16OVA [6] = assay: Level of AKT, pAKT, ERK and p-ERK in treated cells; assay type: cell-based, murine; conditions: 15 μM, vs control cells
Source text: (§5) […]. The EGFR signaling regulates cell proliferation through activates EGFR's intrinsic kinase and leads to activation of several downstream intracellular signaling pathways, including rat sarcoma-MAPK kinase (MEK)-extracellular-related kinase (ERK) and phosphoinositide 3-kinase (PI3K)-Akt pathways. It was reported the opposing effects of V1 and V2 on cell proliferation. […] […].

4T-1 cells [7] = assay: Level of AKT, pAKT, ERK and p-ERK in treated cells; assay type: cell-based, mouse; conditions: 15 μM, vs control cells
Source text: as §5

JC [8] = assay: Level of AKT, pAKT, ERK and p-ERK in treated cells; assay type: cell-based, mouse; conditions: 15 μM, vs control cells
Source text: as §5

JC cells [9] = assay: Tumor growth in Balb/c mice after SC injection of treated JC cells; assay type: in vivo; conditions: tumors from treated JC cells, vs control group and Mitomycin C-treated group
Source text: […]. […] For each group of tumors, the average volume for 3 tumors is plotted. Bars=95% confidence intervals.
Balb/c mice were inoculated by SC injection into the flank with contorl-Mitomycin C- or Amiodarone-treated JC cells. Each group had 3 mice, which were assigned to experimental groups randomly. All the other mice were sacrificed 2 weeks after treatment. […].

JC cells [10] = conditions: Mitomycin C alone, 10 μg/ml
Method: as §4

Cdh5 = assay: Western blot of Cdh5 protein in zebrafish embryos; assay type: in vivo; conditions: 1.5 ng injected at one cell stage, 72 hpf embryos
Method: Cdh5 antibody was used to detect the amount of Cdh5 protein expression by Western blot. The embryos were dechorionated and deyolked with two extra washing steps as described in Link et al. (BMC Dev Biol 2006; 6:1). Deyolked samples were dissolved in 2 μl of 2×SDS sample buffer for each embryo and incubated for 5 min at 95[…]. After full-speed centrifugation for 1 min in a microcentrifuge to remove insoluble particles, total proteins extracted from embryos were analyzed on a 12% SDS-PAGE gel, and Western blot analysis was performed (J Biol Chem 2011; 286:6855-64) using antiserum against mouse Cdh5 (15; 1:10,000). Anti-α-tubulin and anti-β-actin served as a protein loading control. Knockdown experiments were performed as follows: morpholino nucleic acid oligomers (MOs) were purchased from GeneTools (USA): vcana-MO ([…], SEQ ID NO: 1); s-vcanb-MO ([…], SEQ ID NO: 2); snai1b-MO ([…], SEQ ID NO: 3) (Development 134, 4073-4081, 2007); cdh5-MO ([…], SEQ ID NO: 4) (Developmental Dynamics. 2004. 231, 204-213; PloS One 2010. 5, e8807); troponin T2a, cardiac-MO (5′-[…]-3′, SEQ ID NO: 5) (Nat. Genet. 2002. 31, 106-110); and standard control-MO ([…], SEQ ID NO: 6). […]

COc1cc2ncnc(Nc3cccc(Cl)c3)c2cc1OC [AG1478]
cdh5 expression at the heart field (zebrafish embryos; 7 μM, embryos at 55 to 72 hpf): ectopic expression
snail1b expression (zebrafish embryos; 7 μM, embryos at 55 to 72 hpf): lost
activity of GSK3β (EGFR; AG1478 treatment, 7 μM): increased significantly
total level of GSK3β (EGFR; AG1478 treatment, 7 μM): unchanged

CCCCc1oc2ccccc2c1C(=O)c1cc(I)c(OCCN(CC)CC)c(I)c1 [Amiodarone]
endocardial cells at the AVC ([1]; 15 μM during 12-48 hpf): no difference between treated and untreated embryos
valve structure ([1]; 15 μM during 12-72 hpf): only a small aggregation of cells were seen at the upper valve site
cellular aggregation at the valve region ([1]; 15 μM during 12-87 hpf, compared to untreated embryos): almost no cellular aggregation at the valve region
snai1b mRNA expression at the AVC (zebrafish embryos; 15 μM, treated during 55-72 hpf, observed at 72 hpf): lost and decreased or even disappeared
vcana and s-vcanb expression at the heart field (zebrafish embryos; 72 hpf embryos): induced
snai1a mRNA expression in the heart (zebrafish embryos; treated during 55-72 hpf, observed at 72 hpf): still was not expressed in the heart
expression of S-vcanb protein (S-vcanb): increased
EGFR dimeration (EGFR; 72 hpf treated embryos): increased
activity of GSK3β (EGFR; Amiodarone treated embryos): increased significantly
total level of GSK3β (EGFR; Amiodarone treated embryos): unchanged
phosphorylation of EGFR (Tyr-845) (EGFR; treated embryos, dosage dependent manner): reduced
cell survival (MTT) (B16OVA [2]; 15 μM): did not influence
cell survival (MTT) (B16OVA [2]; 10˜30 μM): does not influence
cell survival (MTT) (JC cell; 15 μM): did not influence
cell survival (MTT) (JC cell; 10˜30 μM): does not influence
E-cadherin protein level (B16OVA [3]): increased significantly
Snail protein level (B16OVA [3]): greatly reduced
Versican V1 expression (B16OVA [3]): reduced
Versican V2 expression (B16OVA [3]; vs control cells): increased
E-cadherin protein level (4T-1 cells [4]): increased significantly
Snail protein level (4T-1 cells [4]): greatly reduced
Versican V1 expression (4T-1 cells [4]): no difference
Versican V2 expression (4T-1 cells [4]; vs control cells): increased
E-cadherin protein level (JC [5]): increased significantly
Snail protein level (JC [5]): greatly reduced
Versican V1 expression (JC [5]): reduced
Versican V2 expression (JC [5]; vs control cells): increased
morphological change (B16OVA cells; cells at a growing phase, vs control cells): appeared more stripe and spread out than control cells
phosphorylated AKT (B16OVA [6]): reduced greatly
phosphorylated ERK42/44 (B16OVA [6]): reduced greatly
total level of AKT (B16OVA [6]): unchanged
total level of ERK (B16OVA [6]): unchanged
phosphorylated AKT (4T-1 cells [7]): reduced greatly
phosphorylated ERK42/44 (4T-1 cells [7]): reduced greatly
total level of AKT (4T-1 cells [7]): unchanged
total level of ERK (4T-1 cells [7]): unchanged
phosphorylated AKT (JC [8]): reduced greatly
phosphorylated ERK42/44 (JC [8]): reduced greatly
total level of AKT (JC [8]): unchanged
total level of ERK (JC [8]): unchanged
tumor growth (JC cells [9]): grew slower

CO[C@@]12[C@H](COC(N)=O)C3=C(C(=O)C(C)=C(N)C3=O)N1C[C@@H]1N[C@@H]12 [Mitomycin C]
time course of wound closure (B16OVA cells; Mitomycin C alone, 10 μg/ml): did not affect the time course of wound closure
time course of wound closure (JC cells [10]): did not affect the time course of wound closure

snail1b-MO: morpholino nucleic acid oligomer TTGACAAGA AATGAGCGTGGCATCT, SEQ ID NO: 3 (antisense TTGACAAGAAATGAGCGTGGCATCT; all phosphorodiamidate morpholino (PMO))
expression of Cdh5 protein relative to wild-type (Cdh5): 1.5 fold
